This assay deals with DNA repair nuclease/redox regulator APEX1 (Homo sapiens, UniProt P27695). The assay is described as follows: Inhibition of human APE1 after 25 mins by fluorescence assay.
Sequence of DNA repair nuclease/redox regulator APEX1 (P27695 whole entry): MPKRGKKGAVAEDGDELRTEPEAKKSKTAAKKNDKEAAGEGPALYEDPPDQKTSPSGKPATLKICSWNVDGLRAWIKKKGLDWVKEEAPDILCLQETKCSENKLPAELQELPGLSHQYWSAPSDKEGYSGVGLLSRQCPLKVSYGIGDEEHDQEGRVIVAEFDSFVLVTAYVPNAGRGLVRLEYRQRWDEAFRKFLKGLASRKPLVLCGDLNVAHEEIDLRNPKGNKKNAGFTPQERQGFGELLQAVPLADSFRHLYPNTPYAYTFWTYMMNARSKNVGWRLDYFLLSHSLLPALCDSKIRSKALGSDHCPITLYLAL
`O=C(O)C1=CC(=C(c2ccc(O)c(C(=O)O)c2)c2ccc(O)c(C(=O)O)c2)C=CC1=O` [AURINTRICARBOXYLIC ACID] yielded an IC50 of 10 µM.

Consider `Nc1c(S(=O)(=O)O)cc(Nc2ccc(Nc3nc(Cl)nc(Nc4ccc(S(=O)(=O)O)cc4)n3)c(S(=O)(=O)O)c2)c2c1C(=O)c1ccccc1C2=O`, for which the 50% inhibitory concentration (IC50) is 0.25 µM. `O=C(O)c1cc2cccc([N+](=O)[O-])c2[nH]1` displayed an IC50 of 3 µM.

As usually defined, the IC50 is the point on the concentration scale where inhibition reaches its midpoint. A lower IC50 goes with inhibition by little substance.
